Assays:
[1] = biological target: T1, C. difficile full-length toxin TcdA (Clostridioides difficile, UniProt P16154); assay: cell-based
T1 construct: C. difficile full-length toxins (TcdA or TcdB); purchased Enzo Life Sciences BML-G140-0050

[2] = tested on: C. difficile strain VPI 10463; assay: Acute murine C. difficile infection model; type: in vivo, C57BL/6 mice; settings: for weight loss, time course: acute infection, days after infection, 8 animals per group
Text: In a hospital environment, C. difficile infection occurs when the patient receives an antibiotic treatment that disrupts the normal gut microflora and is exposed to C. difficile spores. The patient often fails to mount a protective immune response against the acute C. difficile infection. (Rupnik, Wilcox et al. 2009). To study the acute C. difficile infection, we established a murine C. difficile infection model. Details of the infection model are provided in the “Experimental Protocol” (below).
In brief, female C57BL/6 mice were administered the following antibiotics: colistin (0.042 units/mL), gentamicin (0.035 mg/mL), kanamycin (0.4 mg/mL), metronidazole (0.215 mg/mL) and vancomycin (0.045 mg/mL) in drinking water for 3 days. The administered antibiotics disrupted the normal gut microflora in mice. On the 4th day, mice received oral administration of 0.5 mL volume containing ˜100 spores produced from a virulent clinical C. difficile isolate (strain VPI 10463). In this acute murine C. difficile infection model, we observed a similar time course of infection when compared to that of clinical patients.
Using the developed murine C. difficile infection model (Example 67), we evaluated our test compounds for their efficacy in reducing weight loss and gut inflammation caused by the acute C. difficile infection. We tested the efficacy of Example 6a and Example 5ae and used eight (8) animals in each group.
We further tested the efficacy of the Example 6a, Example 5ae, Example 4cl, and Example 5al compounds by PO administration. Vancomycin was used as a positive control. Three (3) experiments were performed utilizing a total of five (5) to sixteen (16) animals in each group.
C. difficile strain VPI 10463 was grown for four (4) days in 10 ml of BHI in a Bactron anaerobic workstation (Shel Lab). The culture was centrifuged at 2,700 g for 10 minutes. The bacterial pellet was washed with 10 mL of PBS and the centrifugation was repeated. The pellet was then re-suspended in 10 mL of PBS, incubated at 56° C. for 10 minutes, and then was frozen at −20° C. until used. Titers of spore stocks were determined by serial dilution and plating onto BHI and with 1% taurocholate and counting of colonies after incubation for 24 hours at 37° C. using the GasPak EZ Anaerobe Pouch System.
We utilized an established C. difficile murine infection model (Chen, Katchar et al. 2008). To render them susceptible to infection, female C57BL/6 mice (˜10 weeks old and weighing ˜20 g) were administered the following antibiotics (Sigma Aldrich) in drinking water for 3 days (Days −6 to −3): colistin (0.042 units/mL), gentamicin (0.035 mg/mL), kanamycin (0.4 mg/mL), metronidazole (0.215 mg/mL) and vancomycin (0.045 mg/mL). Based upon an expected water consumption of 100 mL/kg/day, the approximate doses of these antibiotics will be as follows: colistin (4.2 units/kg/day), gentamicin (3.5 mg/kg/day), kanamycin (40 mg/kg/day), metronidazole (21.5 mg/kg/day) and vancomycin (4.5 mg/kg/day). The animals were provided with regular drinking water for two days (Day −2 and Day −1), and the next day (Day 0) they were administered clindamycin phosphate (1 mg/mL solution in PBS) at 10 mL/kg by intraperitoneal injection, for a final dose of 10 mg/kg body weight. The following day (Day 1), they were orally gavaged with ˜100 spores in a 0.5 ml volume.
Compounds were administered beginning ˜8 hours after infection, and the animals were dosed twice per day for two days (Days 2-3) with a total of four doses. Compounds were prepared as 5 mg/mL suspensions in 20% PEG-400, 0.4% carboxymethyl cellulose and 0.2% Tween 80 and administered at a dose of 10 mL/kg, for a final dose of 50 mg/kg body weight.
Animals were observed and weighed two (2) to (3) times daily. Animals that were obviously moribund or had lost >20% of their initial body weight were euthanized. Sub-groups of animals were euthanized four (4) hours after the final compound dose (52 hours after infection). […]

T1 sequence (P16154 whole entry, looked up): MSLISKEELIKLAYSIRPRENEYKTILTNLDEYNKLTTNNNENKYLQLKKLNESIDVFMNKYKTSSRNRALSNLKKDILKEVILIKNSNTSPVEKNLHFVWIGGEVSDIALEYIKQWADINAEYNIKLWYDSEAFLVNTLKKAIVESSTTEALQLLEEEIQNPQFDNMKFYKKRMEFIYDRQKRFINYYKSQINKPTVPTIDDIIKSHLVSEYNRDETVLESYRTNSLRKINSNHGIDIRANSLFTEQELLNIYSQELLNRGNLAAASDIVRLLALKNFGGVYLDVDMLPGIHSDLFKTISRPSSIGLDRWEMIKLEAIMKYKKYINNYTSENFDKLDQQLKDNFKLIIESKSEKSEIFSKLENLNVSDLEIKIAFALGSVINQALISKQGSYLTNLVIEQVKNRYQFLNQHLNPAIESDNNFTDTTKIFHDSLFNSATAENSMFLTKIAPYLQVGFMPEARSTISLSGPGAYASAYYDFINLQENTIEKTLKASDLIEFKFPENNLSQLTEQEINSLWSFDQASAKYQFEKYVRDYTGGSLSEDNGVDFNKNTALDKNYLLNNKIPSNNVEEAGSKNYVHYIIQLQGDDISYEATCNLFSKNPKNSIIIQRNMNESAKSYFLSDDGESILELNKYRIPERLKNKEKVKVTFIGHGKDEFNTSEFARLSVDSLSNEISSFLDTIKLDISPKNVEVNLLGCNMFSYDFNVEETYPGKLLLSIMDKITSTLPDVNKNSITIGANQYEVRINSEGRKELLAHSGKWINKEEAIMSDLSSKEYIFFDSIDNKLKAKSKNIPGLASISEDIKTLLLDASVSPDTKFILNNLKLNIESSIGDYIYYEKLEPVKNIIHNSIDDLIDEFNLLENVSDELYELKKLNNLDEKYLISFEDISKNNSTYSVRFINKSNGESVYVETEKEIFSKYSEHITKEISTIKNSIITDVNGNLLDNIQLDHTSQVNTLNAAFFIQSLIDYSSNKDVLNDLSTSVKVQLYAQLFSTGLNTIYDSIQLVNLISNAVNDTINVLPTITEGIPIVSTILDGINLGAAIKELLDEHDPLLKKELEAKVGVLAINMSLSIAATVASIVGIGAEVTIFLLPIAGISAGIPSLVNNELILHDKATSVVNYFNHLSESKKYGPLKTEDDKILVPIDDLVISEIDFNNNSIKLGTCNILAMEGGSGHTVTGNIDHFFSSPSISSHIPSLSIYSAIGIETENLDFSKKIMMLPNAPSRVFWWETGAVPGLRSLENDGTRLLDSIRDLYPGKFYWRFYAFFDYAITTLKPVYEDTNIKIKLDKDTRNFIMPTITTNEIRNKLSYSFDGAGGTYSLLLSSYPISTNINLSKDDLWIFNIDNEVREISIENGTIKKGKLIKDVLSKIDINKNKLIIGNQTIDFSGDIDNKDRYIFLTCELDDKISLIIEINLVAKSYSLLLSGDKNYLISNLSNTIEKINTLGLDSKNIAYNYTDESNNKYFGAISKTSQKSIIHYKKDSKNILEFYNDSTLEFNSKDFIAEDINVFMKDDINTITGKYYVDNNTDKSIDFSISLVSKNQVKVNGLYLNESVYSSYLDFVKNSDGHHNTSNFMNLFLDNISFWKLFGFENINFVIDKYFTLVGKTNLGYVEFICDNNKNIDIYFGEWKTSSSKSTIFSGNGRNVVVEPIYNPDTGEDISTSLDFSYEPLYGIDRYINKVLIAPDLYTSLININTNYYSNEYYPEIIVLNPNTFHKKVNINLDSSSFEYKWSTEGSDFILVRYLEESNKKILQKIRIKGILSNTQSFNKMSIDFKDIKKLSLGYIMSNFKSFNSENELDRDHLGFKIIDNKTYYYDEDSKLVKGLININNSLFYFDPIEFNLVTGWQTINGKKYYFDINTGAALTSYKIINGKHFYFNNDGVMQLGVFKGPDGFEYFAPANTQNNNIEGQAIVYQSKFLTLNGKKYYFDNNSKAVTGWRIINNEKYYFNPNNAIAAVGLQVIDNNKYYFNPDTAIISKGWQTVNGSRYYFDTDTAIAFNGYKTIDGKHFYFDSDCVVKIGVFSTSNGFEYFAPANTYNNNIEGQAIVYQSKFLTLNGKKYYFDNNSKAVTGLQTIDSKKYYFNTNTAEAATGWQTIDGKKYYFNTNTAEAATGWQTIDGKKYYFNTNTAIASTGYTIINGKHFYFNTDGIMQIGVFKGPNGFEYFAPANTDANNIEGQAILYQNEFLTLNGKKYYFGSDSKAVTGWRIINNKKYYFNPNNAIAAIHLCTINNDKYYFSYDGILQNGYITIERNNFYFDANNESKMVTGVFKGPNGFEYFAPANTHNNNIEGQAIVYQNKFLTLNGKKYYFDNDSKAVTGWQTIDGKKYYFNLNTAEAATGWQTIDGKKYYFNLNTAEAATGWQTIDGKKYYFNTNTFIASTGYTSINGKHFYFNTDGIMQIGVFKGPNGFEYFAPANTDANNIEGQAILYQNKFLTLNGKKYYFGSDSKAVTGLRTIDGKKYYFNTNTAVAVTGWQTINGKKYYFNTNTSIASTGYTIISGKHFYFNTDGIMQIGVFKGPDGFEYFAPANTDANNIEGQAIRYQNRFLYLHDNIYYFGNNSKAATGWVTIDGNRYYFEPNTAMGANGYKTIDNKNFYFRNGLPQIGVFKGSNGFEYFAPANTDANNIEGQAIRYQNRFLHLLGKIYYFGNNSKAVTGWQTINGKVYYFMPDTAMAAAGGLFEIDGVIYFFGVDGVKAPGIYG

Structure (SMILES) | IC50 [1] [nM] | toxin effect on colon length ([2]; PO, 52 hours after infection) | weight loss, time course [2]
O=C(Nc1ccc(C(F)(F)F)cn1)c1ccc(CN2C(=O)c3ccc(Cl)cc3NC(=O)[C@H]2Cc2ccccn2)cc1Cl [Example 5ae, (R)-2-Chloro-4-((8-chloro-2,5-dioxo-3-(pyridin-2-ylmethyl)-2,3-dihydro-1H-benzo[e][1,4]diazepin-4(5H)-yl)methyl)-N-(5-(trifluoromethyl)pyridin-2-yl)benzamide] | 1000 to 10000 | significantly reduced the toxin effect on colon length | significantly reduced weight loss 2.5 and 3.0 days after infection
COc1ccc(NC(=O)c2ccc(CN3C(=O)c4ccc(Cl)cc4NC(=O)[C@H]3Cc3ccccn3)cc2F)nc1 [Example 6a, (R)-4-((8-Chloro-2,5-dioxo-3-(pyridin-2-ylmethyl)-2,3-dihydro-1H-benzo[e][1,4]diazepin-4(5H)-yl)methyl)-2-fluoro-N-(5-methoxypyridin-2-yl)benzamide] | 100 to 999 | – | significantly reduced weight loss 2.25, 2.5 and 3.0 days after infection

— patent US10669242B2 (priority 2016, dated 2020)
